Measured values taken from article PMC12706802, “Ortho-Hydroxyanilides: Slow-Acting, Selective Histone Deacetylase 1/2 Inhibitors Suitable for Photocaging Applications” (ACS Pharmacology & Translational Science, 2025).
Where two headings read alike, the source gives them in different places.

What was measured:
HDAC1 [1] = target: T1, HDAC1 (Homo sapiens, UniProt Q13547); experiment: 100-fold jump-dilution experiments; conditions: 1 h incubation at 5-fold IC50, then 1:100 dilution
[2] = system: HDACs in MDA-MB-231 cells; experiment: HDAC whole cell inhibition assay; conditions: Homo sapiens, MDA-MB-231, light or radiation study, 18 h, read-out: whole-cell HDAC inhibition EC50, MDA-MB-231
MV-3 cells = experiment: MTT cell viability (antiproliferative) assay; assay type: cell-based, human; conditions: for EC50: Homo sapiens, read-out: MV-3 EC50 (MTT); for viability reduction, MV-3 (MTT): at 15 μM, 72 h
Procedure: To evaluate the cytotoxicity of the selected HDAC inhibitors, compounds were tested for their antiproliferative activity against MV-3 and MDA-MB-231 cells using the MTT assay. […] MTT (3-(4,5-dimethylthiazol-2-yl)-2,5-diphenyltetrazolium bromide; Catalog# A2231; BioChemica, Applichem GmbH, Darmstadt, Germany) was utilized to measure the antiproliferative effect. Depending on the incubation time, 3000 MV-3 cells (72 h), 2000 MV-3 cells (96 h) or 1000 MV-3 cells (120 h) per well were seeded in 96-well plates (Starlab GmbH, Hamburg, Germany) with each well containing 199 μL of volume. […] Next, predilutions of the test compounds were prepared in DMSO. […] Subsequently, cells were treated with 1.0 μL of the dilution series of the test compounds. […] After removing the supernatant, formazan was solubilized in 200.0 μL DMSO. The absorbance was measured at 570 nm with background subtraction at 690 nm using a Multiskan microplate photometer (Thermo Fisher Scientific, Waltham, MA, USA). The obtained data were normalized to PBS, considering 100% viability.

HDAC2 [3] = target: HDAC2 (Homo sapiens, UniProt Q92769); experiment: IC50-shift (preincubation time) experiments
MDA-MB-231 cells = experiment: Annexin V/PI apoptosis assay; conditions: MDA-MB-231, 10 μM, 48 h
HDAC1 [4] = target: T1, HDAC1; experiment: Binding kinetics via the progression method (continuous HDAC assay); assay type: biochemical; set-up: purchased BPS Bioscience Inc. #50051; conditions: 45 min, 28 °C
Procedure: To this end, HDAC1, the substrate, and trypsin were incubated directly with the inhibitor at various concentrations and fluorescence was recorded continuously for 45 min. […] By plotting the ratio of the deacetylation rate in the presence of the inhibitor (v i) to the rate in absence of any inhibitor (v 0) as a function of the inhibitor concentration and fitting the data to an appropriate model (eq 3), the equilibrium […] K i was determined (Figure ).
To investigate the binding mode of both compounds, we performed molecular docking studies. Specifically, ST13 was docked into HDAC2 (PDB ID: 3MAX), a cocrystal structure containing an HDAC inhibitor with an ortho-aminoanilide ZBG and a phenyl group as the FPU.
Appropriate test compound concentrations were chosen based on the previously determined IC50 values. […] Each progression curve was fitted to either obtain the apparent first-order rate constant k obs (eq ) or the linear conversion rates v i and v 0 (eq ). For fast-on/fast-off inhibitors, the ratio v i/v 0 was plotted against the corresponding inhibitor concentrations.

HDAC1 [5] = target: T1, HDAC1; experiment: IC50-shift (preincubation time) experiments
HDACs in HEK293 cells = experiment: HDAC whole cell inhibition assay; conditions: Homo sapiens, HEK293, read-out: whole-cell HDAC inhibition EC50, HEK293
HDACs in MV-3 cells = experiment: HDAC whole cell inhibition assay; conditions: Homo sapiens, MV-3, light or radiation study, 18 h, read-out: whole-cell HDAC inhibition EC50, MV-3
Ac-α-tubulin (HDAC6) = experiment: Immunoblot analysis of MV-3 cell lysates; assay type: cell-based, human; conditions: MV-3, 5 μM, 24–72 h
HDACs in MM.1S cells = experiment: HDAC whole cell inhibition assay; conditions: Homo sapiens, MM1.S, read-out: whole-cell HDAC inhibition EC50, MM.1S
HDAC3 = system: HDAC3; set-up: method as in earlier work; conditions: Figure 1 and b11; ref 'Data taken from refs' (numbers not given); cited from earlier work
HDAC2 [6] = conditions: literature value for Cpd-60; ref number not given; cited from earlier work
HDAC6 = system: HDAC6; set-up: method as in earlier work; conditions: Figure 1; ref 'Data taken from refs' (numbers not given); cited from earlier work
[7] = MV-3, light or radiation study, incubation time 120 h, no irradiation

Chain of HDAC2 (Homo sapiens, UniProt Q92769) (Q92769 whole entry): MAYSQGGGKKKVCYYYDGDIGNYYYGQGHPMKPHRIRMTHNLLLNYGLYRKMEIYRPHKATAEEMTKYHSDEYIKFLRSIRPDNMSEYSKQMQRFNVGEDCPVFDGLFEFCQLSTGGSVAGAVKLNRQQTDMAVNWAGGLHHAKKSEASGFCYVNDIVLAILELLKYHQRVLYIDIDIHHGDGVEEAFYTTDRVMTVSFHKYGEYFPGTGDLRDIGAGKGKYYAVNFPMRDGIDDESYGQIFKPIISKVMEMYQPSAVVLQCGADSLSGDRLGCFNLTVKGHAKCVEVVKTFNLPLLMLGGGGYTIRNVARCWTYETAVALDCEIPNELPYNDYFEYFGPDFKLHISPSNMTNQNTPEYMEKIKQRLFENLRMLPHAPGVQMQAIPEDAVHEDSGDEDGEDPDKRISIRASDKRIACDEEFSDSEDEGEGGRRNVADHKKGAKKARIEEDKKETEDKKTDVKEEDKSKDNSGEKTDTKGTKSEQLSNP
T1 sequence (Q13547 whole entry): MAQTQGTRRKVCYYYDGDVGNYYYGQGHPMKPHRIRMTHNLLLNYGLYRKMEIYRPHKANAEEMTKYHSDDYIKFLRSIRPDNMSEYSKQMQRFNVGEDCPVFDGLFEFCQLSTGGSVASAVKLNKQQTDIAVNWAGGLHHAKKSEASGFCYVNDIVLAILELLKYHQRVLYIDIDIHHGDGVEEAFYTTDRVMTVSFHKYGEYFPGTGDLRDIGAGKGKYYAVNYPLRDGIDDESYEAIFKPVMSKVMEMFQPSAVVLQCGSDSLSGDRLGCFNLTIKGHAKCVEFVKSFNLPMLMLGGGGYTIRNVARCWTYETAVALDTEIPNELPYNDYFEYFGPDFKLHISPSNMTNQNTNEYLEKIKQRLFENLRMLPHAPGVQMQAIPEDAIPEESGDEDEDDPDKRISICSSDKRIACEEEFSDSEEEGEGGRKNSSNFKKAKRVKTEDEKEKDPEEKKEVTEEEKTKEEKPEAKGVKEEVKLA

SMILES: CC(=O)Nc1ccc(C(=O)Nc2cc(-c3ccccc3)ccc2O)cc1 [ST13, 4-Acetamido-N-(4-hydroxy-[1,1′-biphenyl]-3-yl)-benzamide]
- dissociation behavior from HDAC1 upon 100-fold dilution (HDAC1 [1]): tight-binding properties
- EC50 [2]: 577 ± 97 nM
- EC50 (MV-3 cells; [7]): 2770 ± 880 nM
- EC50 (MV-3 cells; MV-3, incubation time 96 h): 7940 ± 1360 nM
- viability reduction, MV-3 (MTT) (MV-3 cells): < 25%
- IC50 (HDAC2 [3]; HDAC2 IC50, preincubation time 5 min): 82 ± 12 nM
- IC50 (HDAC2 [3]; HDAC2 IC50, preincubation time 30 min): 83 ± 3 nM
- IC50 (HDAC2 [3]; HDAC2 IC50, preincubation time 60 min): 75 ± 5 nM
- IC50 (HDAC2 [3]; HDAC2 IC50, preincubation time 120 min): 49 ± 9 nM
- apoptosis induction (annexin V/PI) (MDA-MB-231 cells): significantly induced apoptosis
- binding mechanism at HDAC1 (progression curves, kobs versus inhibitor concentration) (HDAC1 [4]): induced fit slow-binding mechanism
- IC50 (HDAC1 [5]; HDAC1 IC50, preincubation time 5 min): 55 ± 7 nM
- IC50 (HDAC1 [5]; HDAC1 IC50, preincubation time 30 min): 36 ± 4 nM
- IC50 (HDAC1 [5]; HDAC1 IC50, preincubation time 60 min): 34 ± 5 nM
- IC50 (HDAC1 [5]; HDAC1 IC50, preincubation time 120 min): 25 ± 3 nM
- EC50 (HDACs in HEK293 cells): 333 ± 64 nM
- EC50 (HDACs in MV-3 cells): 311 ± 47 nM
- acetylation level of α-tubulin (immunoblot) (Ac-α-tubulin (HDAC6)): absence of HDAC6 inhibition
- EC50 (HDACs in MM.1S cells): 637 ± 158 nM

SMILES: CC(=O)Nc1ccc(C(=O)Nc2cc(-c3cccs3)ccc2N)cc1 [Cpd-60, reference compound]
- IC50 (HDAC2 [6]): 49 nM
- EC50 [2]: 87 ± 8 nM
- EC50 (MV-3 cells; [7]): 370 ± 40 nM
- EC50 (MV-3 cells; MV-3, incubation time 96 h): 2340 ± 790 nM
- viability reduction, MV-3 (MTT) (MV-3 cells): < 25%
- apoptosis induction (annexin V/PI) (MDA-MB-231 cells): significantly induced apoptosis
- EC50 (HDACs in HEK293 cells): 178 ± 23 nM
- EC50 (HDACs in MV-3 cells): 97 ± 26 nM
- acetylation level of α-tubulin (immunoblot) (Ac-α-tubulin (HDAC6)): absence of HDAC6 inhibition
- EC50 (HDACs in MM.1S cells): 111 ± 38 nM
